Assay results as given in PubChem BioAssay (NCI).
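How tested: cells in 96-well plates exposed to compound for 48 hours at five concentrations. Abbreviation: GI50, concentration required for 50% inhibition of growth. The concentration for full growth arrest is given as TGI.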

Experiments:
Experiment in all cases: NCI-60 cell line screen, 48 h
[1] = test system: HS 578T breast
[2] = test system: IGROV1 ovarian
[3] = test system: SF-268 CNS
[4] = test system: SNB-19 CNS
[5] = test system: U251 CNS
[6] = test system: 786-0 renal
[7] = test system: BT-549 breast
[8] = test system: EKVX NSCLC
[9] = test system: MDA-MB-435
[10] = test system: K-562 leukemia

Compound	TGI [1] [µM]	TGI [2] [µM]	TGI [3] [µM]	TGI [4] [µM]	TGI [5] [µM]	TGI [6] [µM]	TGI [7] [µM]	TGI [8] [µM]	TGI [9] [µM]	TGI [10] [µM]	GI50 [2] [µM]	GI50 [4] [µM]	GI50 [5] [µM]	GI50 [7] [µM]	GI50 [8] [µM]
C=CCNC1=C2C[C@@H](C)C[C@@H](OC)C(OC(=O)CCCN(C)C)[C@H](C)/C=C(\C)[C@@H](OC(N)=O)[C@H](OC)/C=C\C=C(/C)C(=O)NC(=CC1=O)C2=O (stereo not given in full)	41.7	21.7	27.6	28.9	26.6	24.8	27.6	26.1	26	> 100					
CC(=O)NC1(C)CCC(C(C)(C)NC(C)=O)CC1 (stereo not given)	> 100	> 100	> 100	> 100	> 100	> 100	> 100	> 100	> 100	> 100					
COc1cc2c(cc1OC)C1CN3C(=O)CCC3C(O)C1c1cc(OC)c(OC)cc1-2 (stereo not given)	> 100	> 100	> 100	> 100	> 100	> 100	> 100	> 100	> 100	> 100					
Brc1ccc2c(-c3nc(-c4c[nH]c5ccccc45)cs3)c[nH]c2c1	> 100	> 100	> 100	> 100	> 100	81.1	> 96.8	> 100	> 100	> 100					
Cc1cc(NS(=O)(=O)c2ccc(NC(=O)c3ccc4nc5ccccc5c(Nc5ccc(S(=O)(=O)N=C(N)N)cc5)c4c3)cc2)no1	72.7	38.6	37.3	94.3	30	30.6	46	30	35.3	27.7					
Cc1cc(O)c(C(C)C)cc1NC(=O)Nc1cccc2ccccc12	62.6	37.7	40.9	30.2	31	34.6	36.1	62.7	31.1	> 100					
Cc1c(CNc2ccc(Cl)c(C(=O)NC(CC(=O)O)C(=O)O)c2)ccc2nc(N)nc(N)c12 (stereo not given)	> 1000	232	> 1000	> 1000	> 1000	> 1000	> 1000	> 1000	> 1000	> 1000	50.4	0.382	75.8	666	284
Cc1ccccc1N=C(N)NC#N	> 100	> 100	> 100	> 100	> 100	> 100	> 100	> 100	> 100	> 100					
COc1c2occc2c(OC)c2c(=O)c(S(=O)(=O)NC(=O)Nc3ccc(Cl)cc3)coc12	> 10	> 10	> 10	> 10	> 10	> 10	> 10	> 10	> 10	> 10					
COCn1c2ccc(OC(C)=O)cc2c2c(=O)oc(C)nc21	> 100	> 100	> 100	> 100	> 100	> 100	> 100	> 100	> 100	> 100					
C/C(O)=C/c1nc2ccccc2nc1/C=C(/C)O	67.5	54.7	64.6	> 100	50.9	45.8	> 100	71.5	59.8	81					
COc1ccc(/C=N\N2CC(=O)N3C4C=CC(CC4)N3C2=O)cc1 (stereo not given)	> 100	> 100	> 100	> 100	> 100	> 100	> 100	> 100	> 100	> 100					
O=C(NCC1Nc2ccncc2S(=O)(=O)N1)c1ccc(Br)cc1 (stereo not given)	83.1	> 100	81.2	> 100	> 100	> 100	> 100	> 100	37.2	> 100					
CCCCC/C=C1/CC(CO)(COC(=O)CC(C(C)C)C(C)C)OC1=O (stereo not given)	9.09	31.7	30.3	21.2	27.6	22.3	28.5	31.5	19	66.3					
COc1cc(C2c3cc4c(cc3C(O)C3CCC(=O)N23)OCO4)cc(OC)c1OC (stereo not given)	> 100	> 100	> 100	> 100	82.8	> 100	66.1	> 100	18	> 100					
CN(C(=O)C12C3C4(C(=O)O)C1(C(=O)N(C)C(C)(C)C)C1C2(C(=O)O)C3(C(=O)N(C)C(C)(C)C)C14C(=O)N(C)C(C)(C)C)C(C)(C)C (stereo not given)	> 100	> 100	> 100	> 100	> 100	> 100	> 100	> 100	> 100	> 100					
NNC(=O)CC(=O)Nc1ccc(Cl)cc1	> 100	> 100	> 100	> 100	> 100	> 100	> 100	> 100	> 100	> 100					
O=C(CCc1cccc(O)c1)NCCc1cccc(O)c1	> 100	> 100	> 100	> 100	> 100	> 100	> 100	> 100	> 100	> 100					
CC1=NN(c2cccc(Cl)c2)C2(C1)C(Cl)C(=O)N2c1nc2ccccc2s1 (stereo not given)	> 100	> 100	> 100	> 100	72.5	50.6	85.9	> 100	> 100	48.4					
COc1cc(Oc2nc3ccccc3nc2C(=O)O)cc(OC)c1OC	> 100	> 100	> 100	> 100	> 100	> 100	> 100	> 100	> 100	> 100					
Oc1nc(N/N=C/c2c[nH]c3ccccc23)[nH]c1/C=C1\C=Nc2ccccc21	40.6	41.2	43.1	> 100	32.3	37	60.3	89.6	62.4	27.8					
Cc1c(-c2ccccc2)c(C#N)c2nnn(-c3ccccc3)c(=O)n12	> 100	> 100	> 100	> 100	> 100	> 100	> 100	> 100	> 100	> 100					
Cc1oc2nc1C(=O)NCc1nc(cs1)C(=O)N[C@H](C(C)C)c1nc(cs1)C(=O)N[C@H]2C	> 100	> 100	> 100	> 100	> 100	> 100	> 100	> 100	> 100	> 100					
CC(C)(C)c1cc(C(O)(C(=O)O)C(=O)O)cc(C(C)(C)C)c1O	> 100	> 100	> 100	> 100	> 100	> 100	> 100	> 100	> 100	> 100					
COC(=O)c1c(OC(C)=O)ccc2c1c1c(OC(C)=O)c3ccccc3c(OC(C)=O)c1n2Cc1cc(OC)cc(OC)c1	> 100	> 100	> 100	> 100	> 100	> 100	82.1	26.7	78.3	> 100					
CC1(C)C2CCC1(CS(=O)(=O)Nc1ccccc1)C(=O)C2 (stereo not given)	> 100	> 100	> 100	> 100	> 100	> 100	> 100	> 100	> 100	> 100					
CCCSc1cc(Cl)c(C)cc1S(=O)(=O)n1ccnc1OCCCN(C)C	> 100	> 100	> 100	> 100	> 100	> 100	> 100	> 100	> 100	> 100					
O=C(Nc1ccccc1)c1cc2c(cc1Cl)Sc1nccn1S2(=O)=O	> 84.4	> 72.1	> 89.8	> 100	> 71.7	71.4	60.7	60.5	42.2	> 100					
CC(C)CC(=O)NC(Nc1ccc(S(=O)(=O)Nc2ncccn2)cc1)(C(F)(F)F)C(F)(F)F	> 100	> 100	> 100	> 100	> 100	> 100	> 100	> 100	> 100	> 100					
